Test results as given in patent publication US20200016159A1, “N3-CYCLICALLY SUBSTITUTED THIENOURACILS AND USE THEREOF” (Bayer Aktiengesellschaft, priority 2016, published 2020).

Legend:
[1] = test system: IL-6 release by LL29 fibroblasts; experiment: NECA-induced IL-6 release by LL29 fibroblasts; type: cell-based; details: Homo sapiens, Fibroblast; LL29 cells stimulated with NECA (10 μM), 24 hours, IL-6 ELISA of supernatant
Protocol: Stimulation of fibroblasts with adenosine or the adenosine analog 5′-N-ethylcarboxamidoadenosine (NECA) leads to release of the pro-inflammatory and pro-fibrotic cytokine IL-6 which can be prevented by inhibition of the A2b receptor.
Accordingly, confluent cells of the human fibroblast cell line LL29 were treated with the test substances and stimulated with NECA (10 μM). After an incubation time of 24 hours, the cell supernatant is removed and human IL-6 in the cell supernatant is determined by ELISA (Quantikine® IL6 ELISA, R&D Systems, Minneapolis, USA).
Table 3 below lists the IC50 values obtained in this way for inhibition of IL-6 release for representative working examples (in some cases as means of a plurality of independent individual determinations and rounded to two significant figures; it may also be the case here that various independent preparations of the respective working example have been used): […]

[2] = target: T1, human adenosine A2b receptor (Homo sapiens, UniProt P29275); experiment: Cellular in vitro reporter gene test for A2b receptor activity (antagonism of NECA); type: cell-based; set-up: expressed in transfected cells; host or cells: CHO-K1 (Chinese hamster ovary) with CRE-luciferase reporter; details: recombinant CHO-K1 cells, CRE-luciferase reporter, co-incubation with EC50 concentration of NECA, 3 hours
T1 sequence (P29275 1-332): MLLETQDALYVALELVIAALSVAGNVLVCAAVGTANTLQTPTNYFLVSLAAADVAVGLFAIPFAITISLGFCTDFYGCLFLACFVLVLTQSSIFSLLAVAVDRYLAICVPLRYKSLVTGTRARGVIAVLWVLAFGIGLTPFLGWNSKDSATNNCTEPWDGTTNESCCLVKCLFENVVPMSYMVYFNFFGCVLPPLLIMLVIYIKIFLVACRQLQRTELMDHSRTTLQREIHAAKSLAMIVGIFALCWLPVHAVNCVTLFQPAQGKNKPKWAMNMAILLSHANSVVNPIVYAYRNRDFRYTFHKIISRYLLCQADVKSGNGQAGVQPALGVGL
In short: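 Antagonism measured as block of NECA-induced, cAMP/CRE-dependent luciferase expression in recombinant A2b CHO-K1 cells. NECA used at the EC50 set in a pre-experiment on each test day; luminescence detected after 3 h. Reported as IC50, partly averaged and rounded to two significant figures.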

SMILES	IC50 [2] [nM]	IC50 [1] [nM]
Cc1c(CN2CCNC2=O)sc2c1c(=O)n(C1CC1)c(=O)n2CCCF [Example 5, 3-Cyclopropyl-1-(3-fluoropropyl)-5-methyl-6-[(2-oxoimidazolidin-1-yl)methyl]thieno[2,3-d]pyrimidine-2,4(1H,3H)-dione]	12	21
COCCn1c(=O)n(C2CC2)c(=O)c2c(C)c(CN3CCNC3=NC(=O)OC)sc21 [Example 26, Methyl [1-{[3-cyclopropyl-1-(2-methoxyethyl)-5-methyl-2,4-dioxo-1,2,3,4-tetrahydrothieno[2,3-d]pyrimidin-6-yl]methyl}imidazolidin-2-ylidene]carbamate]	8.3	12
Cc1c(CN2CCNC2=O)sc2c1c(=O)n([C@H]1C[C@@H]1C)c(=O)n2CC1CCC1 [Example 248, 1-(Cyclobutylmethyl)-5-methyl-3-[(1S,2S)-2-methylcyclopropyl]-6-[(2-oxoimidazolidin-1-yl)methyl]thieno[2,3-d]pyrimidine-2,4(1H,3H)-dione]	1.2	–
Cc1c(CN2CCNC2=O)sc2c1c(=O)n([C@H]1C[C@@H]1C)c(=O)n2CC1CCO1 (stereo partly drawn) [Example 282, 5-Methyl-3-[(1S,2S)-2-methylcyclopropyl]-1-(oxetan-2-ylmethyl)-6-[(2-oxoimidazoliidin-1-yl)methyl]thieno[2,3-d]pyrimidine-2,4(1H,3H)-dione]	4.1	–
Cc1c(CN2CCNC2=O)sc2c1c(=O)n(C1CC1C)c(=O)n2C[C@H]1CCCO1 (stereo partly drawn) [Example 286, 5-Methyl-3-(2-methylcyclopropyl)-6-[(2-oxoimidazolidin-1-yl)methyl]-1-[(2R)-tetrahydrofuran-2-ylmethyl]thieno[2,3-d]pyrimidine-2,4(1H,3H)-dione]	17	–
Cc1c(CN2CCNC2=O)sc2c1c(=O)n(C1CC1C)c(=O)n2CC1CCOC1 (centres unmarked) [Example 289, 5-Methyl-3-(2-methylcyclopropyl)-6-[(2-oxoimidazolidin-1-yl)methyl]-1-(tetrahydrofuran-3-ylmethyl)thieno[2,3-d]pyrimidine-2,4(1H,3H)-dione]	35	–
Cc1c(Cn2[nH]ccc2=O)sc2c1c(=O)n(C1CCC1)c(=O)n2CCC(F)(F)F [Example 312, 3-Cyclobutyl-5-methyl-6-[(5-oxo-2,5-dihydro-1H-pyrazol-1-yl)methyl]-1-(3,3,3-trifluoropropyl)thieno[2,3-d]pyrimidine-2,4(1H,3H)-dione]	15	–
Cc1c(Cn2[nH]ccc2=O)sc2c1c(=O)n(C1CC(F)(F)C1)c(=O)n2CCC(F)(F)F [Example 313, 3-(3,3-Difluorocyclobutyl)-5-methyl-6-[(5-oxo-2,5-dihydro-1H-pyrazol-1-yl)methyl]-1-(3,3,3-trifluoropropyl)thieno[2,3-d]pyrimidine-2,4(1H,3H)-dione]	93	–
CCn1c(=O)n([C@H]2C[C@@H]2C)c(=O)c2c(C)c(Cn3nc[nH]c3=O)sc21 [Example 316, 1-Ethyl-5-methyl-3-[(1S,2S)-2-methylcyclopropyl]-6-[(5-oxo-4,5-dihydro-1H-1,2,4-triazol-1-yl)methyl]thieno[2,3-d]pyrimidine-2,4(1H,3H)-dione]	25	–
CCCn1c(=O)n([C@H]2C[C@@H]2C)c(=O)c2c(C)c(Cn3nc[nH]c3=O)sc21 [Example 317, 5-Methyl-3-[(1S,2S)-2-methylcyclopropyl]-6-[(5-oxo-4,5-dihydro-1H-1,2,4-triazol-1-yl)methyl]-1-propylthieno[2,3-d]pyrimidine-2,4(1H,3H)-dione]	19	–
CCCCn1c(=O)n([C@H]2C[C@@H]2C)c(=O)c2c(C)c(Cn3nc[nH]c3=O)sc21 [Example 318, 1-Butyl-5-methyl-3-[(1S,2S)-2-methylcyclopropyl]-6-[(5-oxo-4,5-dihydro-H-1,2,4-triazol-1-yl)methyl]thieno[2,3-d]pyrimidine-2,4(1H,3H)-dione]	12	–
Cc1c(Cn2nc[nH]c2=O)sc2c1c(=O)n([C@H]1C[C@@H]1C)c(=O)n2CC(F)F [Example 320, 1-(2,2-Difluoroethyl)-5-methyl-3-[(S,2S)-2-methylcyclopropyl]-6-[(5-oxo-4,5-dihydro-1H-1,2,4-triazol-1-yl)methyl]thieno[2,3-d]pyrimidine-2,4(1H,3H)-dione]	13	–
Cc1c(Cn2nc[nH]c2=O)sc2c1c(=O)n([C@H]1C[C@@H]1C)c(=O)n2CC(F)(F)F [Example 321, 5-Methyl-3-[(1S,2S)-2-methylcyclopropyl]-6-[(5-oxo-4,5-dihydro-1H-1,2,4-triazol-1-yl)methyl]-1-(2,2,2-trifluoroethyl)thieno[2,3-d]pyrimidine-2,4(1H, 3H)-dione]	17	–
Cc1c(Cn2nc[nH]c2=O)sc2c1c(=O)n([C@H]1C[C@@H]1C)c(=O)n2CCCF [Example 322, 1-(3-Fluoropropyl)-5-methyl-3-[(1S,2S)-2-methylcyclopropyl]-6-[(5-oxo-4,5-dihydro-H-1,2,4-triazol-1-yl)methyl]thieno[2,3-d]pyrimidine-2,4(1H,3H)-dione]	14	–
Cc1c(Cn2nc[nH]c2=O)sc2c1c(=O)n([C@H]1C[C@@H]1C)c(=O)n2CCCC(F)(F)F [Example 324, 5-Methyl-3-[(1S,2S)-2-methylcyclopropyl]-6-[(5-oxo-4,5-dihydro-1H-1,2,4-triazol-1-yl)methyl]-1-(4,4,4-trifluorobutyl)thieno[2,3-d]pyrimidine-2,4(1H, 3H)-dione]	5.5	–
Cc1c(Cn2nc[nH]c2=O)sc2c1c(=O)n([C@H]1C[C@@H]1C)c(=O)n2CC1CCC1 [Example 327, 1-(Cyclobutylmethyl)-5-methyl-3-[(1S,2S)-2-methylcyclopropyl]-6-[(5-oxo-4,5-dihydro-1H-1,2,4-triazol-1-yl)methyl]thieno[2,3-d]pyrimidine-2,4(1H,3H)-dione]	8.5	–
Cc1c(Cn2nc[nH]c2=O)sc2c1c(=O)n([C@H]1C[C@@H]1C)c(=O)n2CC1CC(F)(F)C1 [Example 328, 1-[(3,3-Difluorocyclobutyl)methyl]-5-methyl-3-[(1S,2S)-2-methylcyclopropyl]-6-[(5-oxo-4,5-dihydro-1H-1,2,4-triazol-1-yl)methyl]thieno[2,3-d]pyrimidine-2,4(1H,3H)-dione]	4.9	–

Now from value to compound, other results behind:

IC50 [2] [nM]	SMILES	IC50 [1] [nM]
1.9	Cc1c(CN2CCNC2=O)sc2c1c(=O)n([C@H]1C[C@@H]1C)c(=O)n2CC1CC1(F)F (stereo partly drawn) [Example 249, 1-[(2,2-Difluorocyclopropyl)methyl]-5-methyl-3-[(1S,2S)-2-methylcyclopropyl]-6-[(2-oxoimidazolidin-1-yl)methyl]thieno[2,3-d]pyrimidine-2,4(1H,3H)-dione]	–
6.7	Cc1c(CN2CCNC2=O)sc2c1c(=O)n([C@H]1C[C@@H]1C)c(=O)n2CC1CCC(F)(F)C1 (stereo partly drawn) [Example 255, 1-[(3,3-Difluorocyclopenty)methy]-5-methyethyl-3-[(S,2S)-2-methylcyclopropyl]-6-[(2-oxoimidazolidin-1-yl)methyl]thieno[2,3-d]pyrimidine-2,4(1H,3H)-dione]	–
4.1	Cc1c(CN2CCNC2=O)sc2c1c(=O)n([C@H]1C[C@@H]1C)c(=O)n2CC1COC1 [Example 285, 5-Methyl-3-[(1S,2S)-2-methylcyclopropyl]-1-(oxetan-3-ylmethyl)-6-[(2-oxoimidazoliddin-1-yl)methyl]thieno[2,3-d]pyrimidine-2,4(1H,3H)-dione]	–
49	Cc1c(Cn2[nH]ccc2=O)sc2c1c(=O)n(C1CC(C)(C)C1)c(=O)n2CCC(F)(F)F [Example 314, 3-(3,3-Dimethylcyclobutyl)-5-methyl-6-[(5-oxo-2,5-dihydro-H-pyrazol-1-yl)methyl]-1-(3,3,3-trifluoropropyl)thieno[2,3-d]pyrimidine-2,4(1H,3H)-dione]	–
3.1	Cc1c(Cn2nc[nH]c2=O)sc2c1c(=O)n([C@H]1C[C@@H]1C)c(=O)n2CCC(F)(F)F [Example 323, 5-Methyl-3-[(1S,2S)-2-methylcyclopropyl]-6-[(5-oxo-4,5-dihydro-1H-1,2,4-triazol-1-yl)methyl]-1-(3,3,3-trifluoropropyl)thieno[2,3-d]pyrimidine-2,4(1H,3H)-dione]	–
43	COCCn1c(=O)n([C@H]2C[C@@H]2C)c(=O)c2c(C)c(Cn3nc[nH]c3=O)sc21 [Example 325, 1-(2-Methoxyethyl)-5-methyl-3-[(1S,2S)-2-methylcyclopropyl]-6-[(5-oxo-4,5-dihydro-1H-1,2,4-triazol-1-yl)methyl]thieno[2,3-d]pyrimidine-2,4(1H,3H)-dione]	–
17	Cc1c(Cn2nc[nH]c2=O)sc2c1c(=O)n([C@H]1C[C@@H]1C)c(=O)n2CC1CC1(F)F (stereo partly drawn) [Example 326, 1-[(2,2-Difluorocyclopropyl)methyl]-5-methyl-3-[(1S,2S)-2-methylcyclopropyl]-6-[(5-oxo-4,5-dihydro-1H-1,2,4-triazol-1-yl)methyl]thieno[2,3-d]pyrimidine-2,4(1H,3H)-dione]	–
